This passage reports T/C results from PubChem BioAssay AID292 (DTP/NCI, 2004).

“And” between values parts separate entries of the source, which are not always exact repeats. Equal values may be shown once. Inconclusive results and toxic doses are left out.

The test system of the test is B6C3F1 mice, ip Sarcoma M5076, median survival T/C. Nature of the test: NCI In Vivo Anticancer Drug Screen. Data for tumor model Sarcoma M5076 (intraperitoneal) in B6C3F1 mice. As to conditions: endpoint: median survival time, higher = longer survival. A digest of the protocol:
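Survival measured in treated (T) and vehicle control (C) mice with transplantable tumour; result given as T divided by C.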

[1] abbreviates: dose: 50.0 mg/kg/injection, schedule: Q04DX004 (ip), vehicle: saline with Tween-80.
The mark [2] stands for this setting: dose: 100.0 mg/kg/injection, schedule: Q04DX004 (ip), vehicle: saline with Tween-80.
Where [3] appears, read: dose: 200.0 mg/kg/injection, schedule: Q04DX004 (ip), vehicle: saline with Tween-80.
The mark [4] stands for this setting: dose: 400.0 mg/kg/injection, schedule: Q04DX004 (ip), vehicle: saline with Tween-80.
The mark [5] stands for this setting: dose: 50.0 mg/kg/injection, schedule: Q04DX004 (ip), vehicle: saline.
Setting [6] is: dose: 100.0 mg/kg/injection, schedule: Q04DX004 (ip), vehicle: saline.
The mark [7] stands for this setting: dose: 200.0 mg/kg/injection, schedule: Q04DX004 (ip), vehicle: saline.
Where [8] appears, read: dose: 50.0 mg/kg/injection, schedule: Q04DX004 (ip), vehicle: Klucel (hydroxypropylcellulose) (HPC).
Where [9] appears, read: dose: 100.0 mg/kg/injection, schedule: Q04DX004 (ip), vehicle: Klucel (hydroxypropylcellulose) (HPC).
The mark [10] stands for this setting: dose: 200.0 mg/kg/injection, schedule: Q04DX004 (ip), vehicle: Klucel (hydroxypropylcellulose) (HPC).
The mark [11] stands for this setting: dose: 400.0 mg/kg/injection, schedule: Q04DX004 (ip), vehicle: Klucel (hydroxypropylcellulose) (HPC).

As to `C=CCCC(=O)CCCC(=O)O[C@@H]1[C@@H]2[C@H](CC1(C)C)[C@H](O)[C@@]13O[C@@H]1[C@H](O)[C@@]1(CO1)[C@@]23C`, the T/C by setting is: (dose: 50.0 micrograms/kg/injection, schedule: Q04DX004 (ip), vehicle: Klucel (hydroxypropylcellulose) (HPC)) 92 % of control; (dose: 100.0 micrograms/kg/injection, schedule: Q04DX004 (ip), vehicle: Klucel (hydroxypropylcellulose) (HPC)) 96 % of control; (dose: 200.0 micrograms/kg/injection, schedule: Q04DX004 (ip), vehicle: Klucel (hydroxypropylcellulose) (HPC)) 96 % of control; (dose: 400.0 micrograms/kg/injection, schedule: Q04DX004 (ip), vehicle: Klucel (hydroxypropylcellulose) (HPC)) 96 % of control; (dose: 800.0 micrograms/kg/injection, schedule: Q04DX004 (ip), vehicle: Klucel (hydroxypropylcellulose) (HPC)) 93 % of control.
On to `COc1ccc(/C=N/NC(=O)c2ccc(OCc3nc4ccccc4[nH]3)cc2)cc1`, for which the T/C reads like this: (dose: 25.0 mg/kg/injection, schedule: Q04DX004 (ip), vehicle: saline with Tween-80) 99 % of control; under setting [1], 100 % of control; under setting [2], 103 % of control; under setting [3], 97 % of control; under setting [4], 97 % of control.
As for `CC1C(C#N)C(=O)NC(=O)C1C#N` (configuration not stated), the T/C by setting is: under setting [5], 100 % of control; under setting [6], 104 % of control; under setting [7], 97 % of control; (dose: 400.0 mg/kg/injection, schedule: Q04DX004 (ip), vehicle: saline) 97 % of control; (dose: 800.0 mg/kg/injection, schedule: Q04DX004 (ip), vehicle: saline) 102 % of control.
`CCc1nc(N)nc(N)c1-c1ccc(Cl)c(N=[N+]=[N-])c1`: the T/C is 107 % of control (dose: 8.37 mg/kg/injection, schedule: Q04DX004 (ip), vehicle: water); 108 % of control (dose: 16.75 mg/kg/injection, schedule: Q04DX004 (ip), vehicle: water); 102 % of control (dose: 33.5 mg/kg/injection, schedule: Q04DX004 (ip), vehicle: distilled water + Tween-80); 119 % of control (dose: 33.5 mg/kg/injection, schedule: Q04DX004 (ip), vehicle: water); 109 % of control (dose: 67.0 mg/kg/injection, schedule: Q04DX004 (ip), vehicle: distilled water + Tween-80); 102 % of control (dose: 134.0 mg/kg/injection, schedule: Q04DX004 (ip), vehicle: distilled water + Tween-80). For the same compound, the T/C (dose: 536.0 mg/kg/injection, schedule: Q04DX004 (ip), vehicle: distilled water + Tween-80) is 174 % of control.
Regarding `COCCCn1c(C(Cl)(Cl)Cl)nn2c(=O)c3ccccc3nc2c1=O`, the T/C by setting is: under setting [1], 103 % of control; under setting [2], 99 % of control; under setting [3], 94 % of control; under setting [4], 90 % of control.
On to `c1cc2c(c(CC3CO3)c1CC1CO1)OCCOCCOCCOCCO2` (configuration not stated), for which the T/C by setting is: (dose: 25.0 mg/kg/injection, schedule: Q04DX004 (ip), vehicle: saline + alcohol) 107 % of control; (dose: 50.0 mg/kg/injection, schedule: Q04DX004 (ip), vehicle: saline + alcohol) 108 % of control; (dose: 100.0 mg/kg/injection, schedule: Q04DX004 (ip), vehicle: saline + alcohol) 111 % of control; (dose: 200.0 mg/kg/injection, schedule: Q04DX004 (ip), vehicle: saline + alcohol) 120 % of control.
With `NC(=O)c1c[nH]n(C2OC(CO)C(O)C2O)c1=O` (configuration not stated), the T/C (dose: 12.5 mg/kg/injection, schedule: Q04DX004 (ip), vehicle: saline) is 99 % of control; the T/C (dose: 25.0 mg/kg/injection, schedule: Q04DX004 (ip), vehicle: saline) is 98 % of control; the T/C under setting [5] is 105 % of control; the T/C under setting [6] is 98 % of control; the T/C under setting [7] was 101 % of control.
Consider `COC(=O)[C@@]12OC[C@]34[C@H]([C@@H](O)[C@@H]1O)[C@@]1(C)CC(=O)C(O)=C(C)[C@@H]1C[C@H]3OC(=O)[C@H](OC(=O)/C=C(\C)C(C)C)[C@@H]24`, for which the T/C runs as follows: (dose: 0.12 mg/kg/injection, schedule: Q04DX005 (ip), vehicle: saline) 97 % of control and 101 % of control; (dose: 0.13 mg/kg/injection, schedule: Q04DX004 (ip), vehicle: saline) 97 % of control and 112 % of control and 124 % of control; (dose: 0.13 mg/kg/injection, schedule: Q04DX005 (ip), vehicle: saline) 117 % of control and 122 % of control.
`Cc1ccccc1C1C(C#N)C(=O)NC(=O)C1C#N` (configuration not stated): the T/C under setting [8] was 102 % of control, the T/C under setting [9] was 105 % of control, the T/C under setting [10] was 102 % of control and the T/C under setting [11] was 98 % of control.
For the compound `COC(=O)N1C2CCCCC2=NN(c2ccccc2)N1C(=O)OC` (configuration not stated), the T/C reads like this: under setting [8], 96 % of control; under setting [9], 101 % of control; under setting [10], 99 % of control; under setting [11], 95 % of control; (dose: 800.0 mg/kg/injection, schedule: Q04DX004 (ip), vehicle: Klucel (hydroxypropylcellulose) (HPC)) 100 % of control.
For `Cc1ccc(-c2nnc3cc(C)n4nnnc4n23)cc1`, the T/C (dose: 17.5 mg/kg/injection, schedule: Q04DX004 (ip), vehicle: Klucel (hydroxypropylcellulose) (HPC)) was 97 % of control; the T/C (dose: 35.0 mg/kg/injection, schedule: Q04DX004 (ip), vehicle: Klucel (hydroxypropylcellulose) (HPC)) is 99 % of control; the T/C (dose: 70.0 mg/kg/injection, schedule: Q04DX004 (ip), vehicle: Klucel (hydroxypropylcellulose) (HPC)) was 99 % of control; the T/C (dose: 140.0 mg/kg/injection, schedule: Q04DX004 (ip), vehicle: Klucel (hydroxypropylcellulose) (HPC)) was 101 % of control; the T/C (dose: 280.0 mg/kg/injection, schedule: Q04DX004 (ip), vehicle: Klucel (hydroxypropylcellulose) (HPC)) is 97 % of control.
On to `Nc1ncnc2c1ncn2C1CC2[O][Sn]([c]3ccccc3)([c]3ccccc3)[O]CC2O1` (configuration not stated), for which the T/C (dose: 31.13 mg/kg/injection, schedule: Q04DX004 (ip), vehicle: distilled water + Tween-80) is 95 % of control; the T/C (dose: 62.5 mg/kg/injection, schedule: Q04DX004 (ip), vehicle: distilled water + Tween-80) is 92 % of control; the T/C (dose: 125.0 mg/kg/injection, schedule: Q04DX004 (ip), vehicle: distilled water + Tween-80) was 101 % of control; the T/C (dose: 250.0 mg/kg/injection, schedule: Q04DX004 (ip), vehicle: distilled water + Tween-80) was 101 % of control; the T/C (dose: 500.0 mg/kg/injection, schedule: Q04DX004 (ip), vehicle: distilled water + Tween-80) was 104 % of control.
